The record followed here is publication doi:10.1101/2025.04.02.646353v2, “Novel dopaminergic neurotransmission in the Octopus visual system” (biorxiv, 2025).

Common to all, as to assay: two-electrode voltage clamp, Xenopus oocytes
On the technique in general: In two-electrode clamp one electrode senses voltage and the other passes current.

The subject of assay [1] is T1, DopC1 (O. vulgaris).
T1 construct: full-length cDNA cloned from 1-dph O. vulgaris paralarvae, KSM vector, Xenopus oocytes; homomeric cys-loop channel; LOC number follows O. sinensis annotation
Type of assay: cell-based, Octopus vulgaris. The settings on record: agonist; ND96, -60 mV.

In a further assay the target is T2, DopC2 from Daphnia magna (Daphnia magna, UniProt A0A0P6GTI1).
T2 construct: gene APZ42_017815; cDNA cloned from adult D. magna RNA, KSM vector, Xenopus oocytes; homomeric; LOC116923538 assigned to DopC2 by printed order only (DopC1 = LOC116927457)
T2 sequence (A0A0P6GTI1 36-620): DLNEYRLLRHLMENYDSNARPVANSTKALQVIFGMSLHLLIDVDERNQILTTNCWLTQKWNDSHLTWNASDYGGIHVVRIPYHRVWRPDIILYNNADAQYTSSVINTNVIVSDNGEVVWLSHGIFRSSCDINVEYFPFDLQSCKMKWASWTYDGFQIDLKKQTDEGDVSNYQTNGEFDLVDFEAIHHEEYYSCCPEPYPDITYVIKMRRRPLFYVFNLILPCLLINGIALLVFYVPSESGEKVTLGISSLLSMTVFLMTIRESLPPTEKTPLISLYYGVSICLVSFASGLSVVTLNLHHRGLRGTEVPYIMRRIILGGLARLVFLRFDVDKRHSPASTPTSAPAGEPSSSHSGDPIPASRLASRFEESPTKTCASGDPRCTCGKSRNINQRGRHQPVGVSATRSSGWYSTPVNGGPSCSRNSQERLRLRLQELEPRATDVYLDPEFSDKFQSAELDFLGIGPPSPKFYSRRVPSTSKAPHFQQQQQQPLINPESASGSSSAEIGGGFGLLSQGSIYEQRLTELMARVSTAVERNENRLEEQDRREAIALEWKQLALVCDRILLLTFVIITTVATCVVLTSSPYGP
Type of assay: cell-based. The settings on record: agonist; ND96, -60 mV.

The next assay concerns the target T3, DopC1 from Daphnia magna (Daphnia magna, UniProt A0A0P5YVQ3).
T3 construct: cDNA cloned from adult D. magna RNA, KSM vector, Xenopus oocytes; homomeric; LOC116927457 assigned to DopC1 by printed order only (DopC2 = LOC116923538)
T3 sequence (A0A0P5YVQ3 24-503): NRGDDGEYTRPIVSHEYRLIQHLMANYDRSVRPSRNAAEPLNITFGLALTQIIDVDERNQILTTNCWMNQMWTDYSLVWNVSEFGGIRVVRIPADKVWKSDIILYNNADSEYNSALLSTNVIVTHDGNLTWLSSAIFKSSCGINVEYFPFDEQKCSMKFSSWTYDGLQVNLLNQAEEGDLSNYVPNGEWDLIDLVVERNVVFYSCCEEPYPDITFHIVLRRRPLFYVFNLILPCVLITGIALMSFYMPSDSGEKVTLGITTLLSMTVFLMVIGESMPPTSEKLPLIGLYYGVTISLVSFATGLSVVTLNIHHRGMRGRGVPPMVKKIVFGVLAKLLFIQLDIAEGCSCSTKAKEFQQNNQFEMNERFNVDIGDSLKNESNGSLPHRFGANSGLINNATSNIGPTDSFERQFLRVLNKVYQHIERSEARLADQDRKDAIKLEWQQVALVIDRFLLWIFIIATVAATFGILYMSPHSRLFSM
The class given is cell-based. The settings on record: agonist; ND96, -60 mV.

For assay [2], the target named is T4, DopC1 from Apis mellifera (Apis mellifera, UniProt A0A7M7R6H2).
T4 construct: gene LOC408525; full-length synthetic cDNA (GeneArt), KSM vector, Xenopus oocytes; homomeric channel
T4 sequence (A0A7M7R6H2 91-549): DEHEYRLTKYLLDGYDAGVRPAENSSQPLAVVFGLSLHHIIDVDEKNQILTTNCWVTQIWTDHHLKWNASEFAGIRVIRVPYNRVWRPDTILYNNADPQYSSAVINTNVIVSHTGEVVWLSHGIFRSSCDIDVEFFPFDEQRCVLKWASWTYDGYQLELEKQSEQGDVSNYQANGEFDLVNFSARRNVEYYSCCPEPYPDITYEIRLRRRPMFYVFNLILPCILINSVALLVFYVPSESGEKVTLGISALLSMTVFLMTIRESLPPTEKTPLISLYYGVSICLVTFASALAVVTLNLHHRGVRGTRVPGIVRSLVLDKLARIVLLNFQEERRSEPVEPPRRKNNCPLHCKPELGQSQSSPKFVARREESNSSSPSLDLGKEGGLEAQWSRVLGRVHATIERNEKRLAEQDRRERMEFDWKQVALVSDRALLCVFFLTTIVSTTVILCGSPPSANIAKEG
The class given is cell-based.

In assay [3] the target is T5, DopC1 from Aplysia californica (Aplysia californica, UniProt A0ABM0GHJ1).
T5 construct: gene LOC101853763; full-length synthetic cDNA (GeneArt), KSM vector, Xenopus oocytes; homomeric channel
T5 sequence (A0ABM0GHJ1 25-518): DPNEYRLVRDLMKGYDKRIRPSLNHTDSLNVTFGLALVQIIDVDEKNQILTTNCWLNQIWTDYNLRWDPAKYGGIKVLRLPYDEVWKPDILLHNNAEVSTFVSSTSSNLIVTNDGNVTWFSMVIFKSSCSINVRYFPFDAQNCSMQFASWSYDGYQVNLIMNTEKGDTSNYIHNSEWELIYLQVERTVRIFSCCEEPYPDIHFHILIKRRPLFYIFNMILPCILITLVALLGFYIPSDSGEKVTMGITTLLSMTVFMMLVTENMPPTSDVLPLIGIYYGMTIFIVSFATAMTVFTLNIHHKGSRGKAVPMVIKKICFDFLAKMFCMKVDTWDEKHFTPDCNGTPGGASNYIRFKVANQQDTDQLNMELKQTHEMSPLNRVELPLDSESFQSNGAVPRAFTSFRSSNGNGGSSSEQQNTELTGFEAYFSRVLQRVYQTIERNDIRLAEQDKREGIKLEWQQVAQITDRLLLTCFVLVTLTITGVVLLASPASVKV
Type of assay: cell-based.

Another assay deals with T6, AChRB1 (O. vulgaris).
T6 construct: full-length cDNA cloned from 1-dph O. vulgaris paralarvae, KSM vector, Xenopus oocytes; expressed alone (homomeric); LOC number follows O. sinensis annotation
The class given is cell-based, Octopus vulgaris. Conditions: agonist; ND96, -60 mV.

For assay [4], the system named is T1, DopC1 (O. vulgaris). Type of assay: cell-based, Octopus vulgaris. The settings on record: antagonist; against 10 µM dopamine (~EC50); ND96, -60 mV.

`NCC(O)c1ccc(O)cc1` (racemic) [octopamine] came in with an EC50 with DopC1 (O. vulgaris) [1] of 18000 µM.
Take `NCCc1ccc(O)c(O)c1` [dopamine]: the concentration for a half-maximal effect (EC50) in the assay on DopC1 (O. vulgaris) [1] is 7.6 µM; at DopC2 from Daphnia magna, 4.6 µM; on DopC1 from Daphnia magna, 50 µM; in assay [2] it was 1.7 µM; in assay [3], 3.5 µM.
In the assay on AChRB1 (O. vulgaris), `C[N+](C)(C)CCO` [choline] registered an EC50 of 98 µM.
In the case of `CN1CCc2cccc3c2[C@H]1Cc1ccc(O)c(O)c1-3` [apomorphine], the IC50 in the assay with DopC1 (O. vulgaris) [4] stood at 7 µM.
As for `NCC(O)c1ccc(O)c(O)c1` (racemic) [norepinephrine], the EC50 turned out to be 55 µM in the assay on DopC1 (O. vulgaris) [1]; 36 µM on DopC2 from Daphnia magna; 82 µM on DopC1 from Daphnia magna; 6.3 µM in assay [2]; 8.4 µM in assay [3].
`NCCc1c[nH]c2ccc(O)cc12` [serotonin] yielded an EC50 with DopC1 (O. vulgaris) [1] of 73 µM.
As for `CNCC(O)c1ccc(O)c(O)c1` (racemic) [epinephrine], a half-maximal response in the assay with DopC1 (O. vulgaris) [1] (EC50) required 35 µM.
Consider `NCCc1ccc(O)cc1` [tyramine], for which the EC50 with DopC1 (O. vulgaris) [1] worked out at 180 µM.
The compound `CC(=O)OCC[N+](C)(C)C` [acetylcholine] came in with an EC50 in the assay with AChRB1 (O. vulgaris) of 1.9 µM.

The term EC50 denotes the midpoint of the concentration-response curve. Read a high EC50 as lower potency in that assay. The term IC50 denotes the concentration that gives 50% inhibition. A lower IC50 goes with greater potency.
